Measured values from patent EP0151996A2, “Process for the Preparation of a double-chain plasminogen activator” (Asahi Kasei Kogyo Kabushiki Kaisha, priority 1984, dated 1985).
Read-outs that look alike come from different tables or passages of the source.

Tests used:
[1] = target: T1, single-chain plasminogen activator (Homo sapiens, UniProt P00750); assay: Influence of proteinase inhibitors on hydrolysis of Boc-Phe-Ser-Arg-MCA, single-chain form; format: biochemical
T1 construct: culturing human normal tissue derived cells such as cells derived from human embryonic kidney, intestines, lungs; endogenous in cells; host or cells: human normal tissue derived cells (e.g. human embryonic kidney or lung cells); secreted protein purified from the culture liquor in the presence of aprotinin
T1 sequence (P00750 36-562): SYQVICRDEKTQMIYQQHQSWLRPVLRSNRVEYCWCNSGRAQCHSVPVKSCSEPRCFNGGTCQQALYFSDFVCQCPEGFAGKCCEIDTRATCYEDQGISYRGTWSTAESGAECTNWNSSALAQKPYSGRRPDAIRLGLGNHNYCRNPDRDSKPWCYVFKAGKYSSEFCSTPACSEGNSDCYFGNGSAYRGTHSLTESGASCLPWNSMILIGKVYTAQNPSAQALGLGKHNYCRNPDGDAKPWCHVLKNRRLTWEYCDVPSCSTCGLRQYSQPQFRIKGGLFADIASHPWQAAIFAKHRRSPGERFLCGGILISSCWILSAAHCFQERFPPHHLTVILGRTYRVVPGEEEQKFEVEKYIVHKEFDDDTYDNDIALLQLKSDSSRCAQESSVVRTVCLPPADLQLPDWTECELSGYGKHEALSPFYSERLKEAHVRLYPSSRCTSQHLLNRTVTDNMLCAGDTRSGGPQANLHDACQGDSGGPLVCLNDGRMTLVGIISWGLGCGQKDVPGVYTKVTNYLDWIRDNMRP
Procedure: (§1) To 50 µℓ of either each of the substances of this invention (100 U/mt) or urokinase (100 IU/mℓ) were added 50 µℓ of one of a number of solutions of various proteinase inhibitors and 300 µℓ of a 0.05 M tris-HCt buffer (pH 8.0) containing 0.1 M sodium chloride, and each reaction was effected at 37°C for 5 minutes. Thereafter, 100 µℓ of 0.1 mM of Boc-Phe-Ser-Arg-MCA (Peptide Institute, Inc.) was added, and each reaction was effected at 37°C.for 60 minutes. Thereafter, 0.5 mℓ of 20% acetic acid was added to terminate the reaction which was then measured for the formed aminomethylcoumarin at an excitation wavelength of 370 nm, a slit width of 2 nm, an emission wavelength of 460 nm and a slit width of 2 nm to determine the hydrolysis activity.
(§2) The concentrations (IC50) of the proteinase inhibitors which inhibit 50% of the activity of the substances of this invention were determined and the results are shown in Table 2.

[2] = target: T2, double-chain plasminogen activator (Homo sapiens, UniProt P00750); assay: Influence of proteinase inhibitors on hydrolysis of Boc-Phe-Ser-Arg-MCA, double-chain form; format: biochemical
T2 construct: endogenous in cells; host or cells: human normal tissue derived cells (e.g. human embryonic kidney or lung cells); secreted protein purified from the culture liquor and converted by enzyme (plasmin) treatment or incubation
T2 sequence (P00750 311-562 limits assumed): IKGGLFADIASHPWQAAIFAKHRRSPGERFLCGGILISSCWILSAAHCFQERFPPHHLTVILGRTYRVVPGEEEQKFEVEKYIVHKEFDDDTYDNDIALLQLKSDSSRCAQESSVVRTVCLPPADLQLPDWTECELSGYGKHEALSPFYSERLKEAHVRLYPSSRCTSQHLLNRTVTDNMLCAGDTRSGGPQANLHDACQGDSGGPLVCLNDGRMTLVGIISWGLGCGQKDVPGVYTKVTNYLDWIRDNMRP
T2 sequence (P00750 36-310 partner limits assumed): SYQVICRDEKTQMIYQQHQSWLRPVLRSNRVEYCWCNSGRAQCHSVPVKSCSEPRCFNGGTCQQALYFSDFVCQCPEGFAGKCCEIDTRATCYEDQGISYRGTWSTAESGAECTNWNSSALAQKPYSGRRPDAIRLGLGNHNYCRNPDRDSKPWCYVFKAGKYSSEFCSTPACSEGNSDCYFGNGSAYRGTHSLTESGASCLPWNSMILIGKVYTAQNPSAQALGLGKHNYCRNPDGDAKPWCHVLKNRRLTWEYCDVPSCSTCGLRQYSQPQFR
Procedure: as §1, §2

| Compound | IC50 [1] [µM] | IC50 [2] [µM] | IC50 ([1]; Single-Chain Structure 100 U/mℓ, substrate Boc-Phe-Ser-Arg-MCA, 37°C 60 minutes, read-out: IC50) [µM] | IC50 ([2]; Double-Chain Structure 100 U/mℓ, substrate Boc-Phe-Ser-Arg-MCA, 37°C 60 minutes, read-out: IC50) [µM] |
| --- | --- | --- | --- | --- |
| CC(=O)N[C@@H](CC(C)C)C(=O)N[C@@H](CC(C)C)C(=O)N[C@H](C=O)CCCNC(=N)N [Leupeptin] | 280 | 570 |  |  |
| CCOC(=O)c1ccc(OC(=O)CCCCCNC(=N)N)cc1 [FOY] |  |  | 17 | 92 |
